Where a SMILES comes first, the peptide text is derived from it. [ ]: non-standard residue; d: D form. ξ: configuration not given here. ξBip(2'-Et-4'-OMe) = CCc1cc(OC)ccc1-c1ccc(CC(N)C(=O)O)cc1; Arg(NO2) = N=C(NCCC[C@H](N)C(=O)O)N[N+](=O)[O-]; ξαMePhe(2,6-F2) = CC(N)(Cc1c(F)cccc1F)C(=O)O; ξαMe(hhPhe) = CC(N)(CCCc1ccccc1)C(=O)O; ξαMePhe(2-F) = CC(N)(Cc1ccccc1F)C(=O)O; hArg = N=C(N)NCCCC[C@H](N)C(=O)O; Cit = NC(=O)NCCC[C@H](N)C(=O)O; ξhhPhe = NC(CCCc1ccccc1)C(=O)O; ξαMeF = CC(N)(Cc1ccccc1)C(=O)O; NMeV = CN[C@H](C(=O)O)C(C)C; ξαMeNle = CCCCC(C)(N)C(=O)O; Nle = CCCC[C@H](N)C(=O)O; Orn = NCCC[C@H](N)C(=O)O; ξαMeP = CC1(C(=O)O)CCCN1; Ac5c = NC1(C(=O)O)CCCC1; Ac3c = NC1(C(=O)O)CC1; Aib = CC(C)(N)C(=O)O
System: ovariectomised (OVX) rats
Experiment: In vivo anti-osteoporosis activity testing in OVX rat model (serum calcium, phosphate, bone parameters)
Parameters: species or system Female Wistar Rats
Conditions: po
Source text: c) In Vivo Anti-Osteoporosis Activity Testing in OVX Rat Model: The ovariectomised (OVX) rats were used to study anti-osteoporosis activity of test compounds (short-chain peptides) in vivo. The OVX rats develop osteopenia due to ovarian hormone deficiency. Osteopenia can be detected as early as 14 days post OVX, increase for the next 100 days and then stabilised (Wronski T. J., et al., Calcif. Tissue Int., 43(3), 1988, 179-183). Detailed Study Protocol to Evaluate the Effects of Anabolic Therapy on Bone Markers and Histomorphometry in OVX Animals: 10 to 11 weeks old Female Wistar Rats (150-200 g) were used. The animals were kept in individually ventilated cages in a room with controlled temperature (23°±3° C.), lighting (12:12 h light-dark cycle) and relative humidity (55±10%). Animals had free access to standard rat chow and water. Protocol for use of animals for conducting this study has been reviewed and approved by Institutional Animal Ethics Committee (IAEC). The animals were marked with picric acid for identification and acclimatized to experimental room conditions for 2 days prior to initiation of the study. For the induction of osteoporosis, rats were bilaterally ovariectomised under anesthesia. For Ovariectomy, Incision was made on dorsa-lateral side near lumbar region of animal. After that, ovary was excised and the veins were tied with ligature before removing ovary to prevent blood loss. Then incision was sutured back with ligature. After Bilateral ovariectomy, animals were allowed to rest for 4 weeks. They were then divided into different groups (n=9) based on their body weight. The groups consisted of a no treatment control, PTH as standard and one or two groups of test compounds (short-chain peptides). The treatment was given for the duration of 6 weeks. At the last day of treatment animals were kept overnight in metabolic cages under fasting for the collection of Urine. Next day, blood was collected after 24 hours of last dosing and animals were sacrificed. Changes in biochemical parameters and bone turnover parameters (Increase in serum Calcium and decrease in Phosphate levels, Acid Phosphatase and TRAP) were evaluated in the urine and serum. After sacrificing, intact femur and tibial bones are removed and cleaned from adherent tissues, muscles and tendons; weighed and collected in formal saline (10% formaldehyde solution). Lumbar vertebra (L5) was excised, carefully cleaned and collected in formal saline. Femur, tibia and Lumbar vertebra-5 (L5) were later processed for histomorphometric evaluation (Zhang L., et al., Tohoku J Exp Med., 1998, 186(2), 131-41; Tanizawa T., et al., Toxicol Lett., 1998, 102, 399-403).

## CCCC[C@H](NC(=O)C(C)(Cc1ccccc1F)NC(=O)[C@H](CCC(N)=O)NC(=O)[C@@H](NC(=O)[C@H](CCC(=O)O)NC(=O)C(C)(C)NC(=O)[C@@H](NC(=O)C1(N)CCCC1)C(C)C)[C@@H](C)CC)C(=O)N[C@@H](Cc1c[nH]cn1)C(=O)N[C@@H](CCC(N)=O)C(=O)NC(C)(C)C(=O)NC(C)(C)C(=O)NC(C)(C)C(=O)NC(C)(Cc1ccccc1F)C(N)=O (stereo partly drawn) [Seq. ID. 556] (H-[Ac5c]V[Aib]EIQ[ξαMePhe(2-F)][Nle]HQ[Aib][Aib][Aib][ξαMePhe(2-F)]-NH2)
5 mg/kg
  % decrease in serum PO4 Levels (mg/dl) vs control: 84%
  % increase in serum Ca^2+ Levels (mg/dl) vs control: 77%

## CCCC[C@H](NC(=O)[C@H](CC(C)C)NC(=O)[C@H](CCC(N)=O)NC(=O)[C@@H](NC(=O)[C@H](CCC(=O)O)NC(=O)C(C)(C)NC(=O)[C@@H](NC(=O)C1(N)CCCC1)C(C)C)[C@@H](C)CC)C(=O)N[C@@H](Cc1c[nH]cn1)C(=O)N[C@@H](CCC(N)=O)C(=O)N[C@@H](CCCCNC(=N)N)C(=O)N[C@@H](C)C(=O)N[C@@H](CCCNC(=N)N[N+](=O)[O-])C(=O)NC(Cc1ccc(-c2ccc(OC)cc2CC)cc1)C(=O)NC(CCCc1ccccc1)C(N)=O (stereo partly drawn) [Seq. ID. 686] (H-[Ac5c]V[Aib]EIQL[Nle]HQ[hArg]A[Arg(NO2)][ξBip(2'-Et-4'-OMe)][ξhhPhe]-NH2)
3 mg/kg
  % decrease in serum PO4 Levels (mg/dl) vs control: 80%
  % increase in serum Ca^2+ Levels (mg/dl) vs control: 84%

## CCCC[C@H](NC(=O)C(C)(Cc1ccccc1F)NC(=O)[C@H](CCC(N)=O)NC(=O)[C@@H](NC(=O)[C@H](CCC(=O)O)NC(=O)C1(NC(=O)[C@@H](NC(=O)C2(N)CCCC2)C(C)C)CCCC1)[C@@H](C)CC)C(=O)N[C@@H](Cc1c[nH]cn1)C(=O)N[C@@H](CCC(N)=O)C(=O)N[C@@H](CCCCNC(=N)N)C(=O)N[C@@H](C)C(=O)N[C@@H](CCCCN)C(=O)NC(C)(Cc1c(F)cccc1F)C(N)=O (stereo partly drawn) [Seq. ID. 99] (H-[Ac5c]V[Ac5c]EIQ[ξαMePhe(2-F)][Nle]HQ[hArg]AK[ξαMePhe(2,6-F2)]-NH2)
2 mg/kg
  % decrease in serum PO4 Levels (mg/dl) vs control: 89%
  % increase in serum Ca^2+ Levels (mg/dl) vs control: 99%

## CCCC[C@H](NC(=O)C(C)(Cc1c(F)cccc1F)NC(=O)[C@H](CCC(N)=O)NC(=O)[C@@H](NC(=O)[C@H](CCC(=O)O)NC(=O)C(C)(C)NC(=O)[C@@H](NC(=O)C1(N)CCCC1)C(C)C)[C@@H](C)CC)C(=O)N[C@@H](Cc1c[nH]cn1)C(=O)N[C@@H](CCC(N)=O)C(=O)N[C@@H](CCCNC(N)=O)C(=O)N[C@@H](C)C(=O)NC(C)(Cc1c(F)cccc1F)C(=O)NC(C)(Cc1c(F)cccc1F)C(N)=O (stereo partly drawn) [Seq. ID. 391] (H-[Ac5c]V[Aib]EIQ[ξαMePhe(2,6-F2)][Nle]HQ[Cit]A[ξαMePhe(2,6-F2)][ξαMePhe(2,6-F2)]-NH2)
0.1 mg/kg
  % decrease in serum PO4 Levels (mg/dl) vs control: 59%
  % increase in serum Ca^2+ Levels (mg/dl) vs control: 82%

## CCCC[C@H](NC(=O)[C@H](CC(C)C)NC(=O)[C@H](CCC(N)=O)NC(=O)[C@@H](NC(=O)[C@H](CCC(=O)O)NC(=O)C(C)(C)NC(=O)[C@@H](NC(=O)C(C)(C)NC(=O)[C@@H](N)C(C)C)C(C)C)[C@@H](C)CC)C(=O)N[C@@H](Cc1c[nH]cn1)C(=O)N[C@@H](CCC(N)=O)C(=O)N[C@@H](CCCCNC(=N)N)C(=O)N[C@@H](C)C(=O)N[C@@H](CCCCN)C(=O)NC(Cc1ccc(-c2ccc(OC)cc2CC)cc1)C(=O)NC(C)(CCCc1ccccc1)C(N)=O (stereo partly drawn) [Seq. ID. 893] (H-V[Aib]V[Aib]EIQL[Nle]HQ[hArg]AK[ξBip(2'-Et-4'-OMe)][ξαMe(hhPhe)]-NH2)
0.3 mg/kg
  % decrease in serum PO4 Levels (mg/dl) vs control: 89%
  % increase in serum Ca^2+ Levels (mg/dl) vs control: 108%

## CC[C@H](C)[C@H](NC(=O)[C@H](CCC(=O)O)NC(=O)C(C)(C)NC(=O)[C@@H](NC(=O)C1(N)CC1)C(C)C)C(=O)N[C@@H](CCC(N)=O)C(=O)N[C@@H](CC(C)C)C(=O)N[C@@H](CCSC)C(=O)N[C@@H](Cc1c[nH]cn1)C(=O)N[C@@H](CCC(N)=O)C(=O)N[C@@H](CCCCNC(=N)N)C(=O)N1CCCC1(C)C(=O)N[C@@H](CCCCN)C(=O)NC(C)(Cc1ccccc1)C(N)=O (stereo partly drawn) [Seq. ID. 12] (H-[Ac3c]V[Aib]EIQLMHQ[hArg][ξαMeP]K[ξαMeF]-NH2)
5 mg/kg
  % decrease in serum PO4 Levels (mg/dl) vs control: 102%
  % increase in serum Ca^2+ Levels (mg/dl) vs control: 118%

## CCCCC(C)(NC(=O)[C@H](CC(C)C)NC(=O)[C@H](CCC(N)=O)NC(=O)[C@@H](NC(=O)[C@H](CCC(=O)O)NC(=O)C(C)(C)NC(=O)[C@@H](NC(=O)C1(NC(=O)[C@@H](NC)C(C)C)CCCC1)C(C)C)[C@@H](C)CC)C(=O)N[C@@H](Cc1c[nH]cn1)C(=O)N[C@@H](CCC(N)=O)C(=O)N[C@@H](CCCCNC(=N)N)C(=O)N[C@@H](C)C(=O)N[C@@H](CCCCNC(=N)N)C(=O)NC(C)(Cc1ccccc1F)C(=O)NC(C)(CCCc1ccccc1)C(N)=O (stereo partly drawn) [Seq. ID. 941] (H-[NMeV][Ac5c]V[Aib]EIQL[ξαMeNle]HQ[hArg]A[hArg][ξαMePhe(2-F)][ξαMe(hhPhe)]-NH2)
0.9 mg/kg
  % decrease in serum PO4 Levels (mg/dl) vs control: 95%
  % increase in serum Ca^2+ Levels (mg/dl) vs control: 99%

## CCCC[C@H](NC(=O)C(C)(Cc1c(F)cccc1F)NC(=O)[C@H](CCC(N)=O)NC(=O)[C@@H](NC(=O)[C@H](CCC(=O)O)NC(=O)C(C)(C)NC(=O)[C@@H](NC(=O)C(C)(C)N)C(C)C)[C@@H](C)CC)C(=O)N[C@@H](Cc1c[nH]cn1)C(=O)N[C@@H](CCC(N)=O)C(=O)N[C@@H](CCCN)C(=O)N[C@@H](C)C(=O)NC(C)(Cc1c(F)cccc1F)C(=O)NC(C)(Cc1ccccc1F)C(N)=O (stereo partly drawn) [Seq. ID. 317] (H-[Aib]V[Aib]EIQ[ξαMePhe(2,6-F2)][Nle]HQ[Orn]A[ξαMePhe(2,6-F2)][ξαMePhe(2-F)]-NH2)
3 mg/kg
  % decrease in serum PO4 Levels (mg/dl) vs control: 93%
  % increase in serum Ca^2+ Levels (mg/dl) vs control: 102%

## CC[C@H](C)[C@H](NC(=O)[C@H](CCC(=O)O)NC(=O)C(C)(C)NC(=O)[C@@H](NC(=O)C(C)(C)N)C(C)C)C(=O)N[C@@H](CCC(N)=O)C(=O)N[C@@H](CC(C)C)C(=O)N[C@@H](CCSC)C(=O)N[C@@H](Cc1c[nH]cn1)C(=O)N[C@@H](CCC(N)=O)C(=O)N[C@@H](CCCCNC(=N)N)C(=O)N1CCCC1(C)C(=O)N[C@@H](CCCCN)C(=O)NC(C)(Cc1ccccc1)C(N)=O (stereo partly drawn) [Seq. ID. 7] (H-[Aib]V[Aib]EIQLMHQ[hArg][ξαMeP]K[ξαMeF]-NH2)
1 mg/kg
  % decrease in serum PO4 Levels (mg/dl) vs control: 88%
  % increase in serum Ca^2+ Levels (mg/dl) vs control: 90%

Reference: patent publication US8383581B2, “Short-chain peptides as parathyroid hormone (PTH) receptor agonist” (Cadila Healthcare Limited, priority 2009, dated 2013)
